Data: the supplement of paper PMC10307832

Legend:
Test in all cases: relative viability (nuclei count vs DMSO), 5 days (fraction); higher = more cells survive
[1] = compound: COc1cc2ncn(-c3cc(OCc4ccccc4C(F)(F)F)c(C(N)=O)s3)c2cc1OC + CC(=O)Nc1cccc(-n2c(=O)n(C3CC3)c(=O)c3c(Nc4ccc(I)cc4F)n(C)c(=O)c(C)c32)c1 [Trametinib] (partner 0.02 µM)
In short: (§1)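 After 5 days of treatment, lung cancer cells in 1536-well plates were fixed and stained in a single step (final 0.05% Triton X-100, 1% formaldehyde, 1 ug/ml Hoechst) and their nuclei counted on 4× images. Treatment had been applied by pin tool the day after seeding as one drug alone or as a fixed anchor-drug dose with five library-drug doses (not always all listed) in √10 steps. Relative viability is the nuclei count of treated wells divided by that of vehicle wells, and values are medians of duplicate plates.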

[2] = compound: COc1cc2ncn(-c3cc(OCc4ccccc4C(F)(F)F)c(C(N)=O)s3)c2cc1OC + CC1(C)CCC(c2ccc(Cl)cc2)=C(CN2CCN(c3ccc(C(=O)NS(=O)(=O)c4ccc(N[C@H](CCN5CCOCC5)CSc5ccccc5)c(S(=O)(=O)C(F)(F)F)c4)cc3)CC2)C1 [Navitoclax] (partner 0.5 µM)
In short: as §1

[3] = compound: COc1cc2ncn(-c3cc(OCc4ccccc4C(F)(F)F)c(C(N)=O)s3)c2cc1OC + Nc1nc2[nH]cc(CCc3ccc(C(=O)N[C@@H](CCC(=O)O)C(=O)O)cc3)c2c(=O)[nH]1 [Pemetrexed] (partner 0.2 µM)
In short: as §1

[4] = compound: COc1cc2ncn(-c3cc(OCc4ccccc4C(F)(F)F)c(C(N)=O)s3)c2cc1OC + N=C(N)NC(=N)NCCc1ccccc1 [Phenformin] (partner 250 µM)
In short: as §1

Cell Line | relative viability ([1]; first compound 0.05 µM) | relative viability ([1]; first compound 0.1581 µM) | relative viability ([1]; first compound 0.5 µM) | relative viability ([1]; first compound 1.581 µM) | relative viability ([1]; first compound 5 µM) | relative viability ([2]; first compound 0.05 µM) | relative viability ([2]; first compound 0.1581 µM) | relative viability ([2]; first compound 0.5 µM) | relative viability ([2]; first compound 1.581 µM) | relative viability ([2]; first compound 5 µM) | relative viability ([3]; first compound 0.05 µM) | relative viability ([3]; first compound 0.1581 µM) | relative viability ([3]; first compound 0.5 µM) | relative viability ([3]; first compound 1.581 µM) | relative viability ([3]; first compound 5 µM) | relative viability ([4]; first compound 0.05 µM) | relative viability ([4]; first compound 0.1581 µM) | relative viability ([4]; first compound 0.5 µM) | relative viability ([4]; first compound 1.581 µM) | relative viability ([4]; first compound 5 µM)
UMC-11 | 0.543 | 0.195 | 0.194 | 0.156 | 0.12 | 0.312 | 0.269 | 0.113 | 0.0962 | 0.094 | 0.619 | 0.599 | 0.201 | 0.191 | 0.201 | 0.271 | 0.201 | 0.158 | 0.173 | 0.168
PC-3 [JPC-3] | 0.697 | 0.698 | 0.536 | 0.407 | 0.279 | 0.757 | 0.715 | 0.471 | 0.27 | 0.238 | 1.31 | 1.1 | 0.611 | 0.28 | 0.254 | 0.494 | 0.501 | 0.381 | 0.184 | 0.187
LK-2 | 0.719 | 0.457 | 0.283 | 0.151 | 0.145 | 0.867 | 0.732 | 0.266 | 0.117 | 0.133 | 0.386 | 0.268 | 0.168 | 0.115 | 0.0951 | 0.423 | 0.445 | 0.23 | 0.187 | 0.106
COR-L23 | 0.591 | 0.286 | 0.27 | 0.105 | 0.0781 | 1 | 0.897 | 0.38 | 0.0788 | 0.091 | 0.201 | 0.208 | 0.166 | 0.156 | 0.154 | 0.464 | 0.385 | 0.201 | 0.104 | 0.0889
NCI-H1944 | 0.413 | 0.42 | 0.337 | 0.189 | 0.123 | 1.04 | 1.06 | 0.785 | 0.189 | 0.123 | 0.666 | 0.635 | 0.536 | 0.178 | 0.0832 | 0.211 | 0.234 | 0.174 | 0.106 | 0.0856
LCLC-103H | 0.675 | 0.643 | 0.565 | 0.452 | 0.268 |  |  |  |  |  | 0.449 | 0.48 | 0.442 | 0.27 | 0.195 | 0.386 | 0.397 | 0.279 | 0.178 | 0.127
ABC-1 |  |  |  |  |  |  |  |  |  |  |  |  |  |  |  | 0.239 | 0.255 | 0.226 | 0.172 | 0.181
NCI-H358 | 0.146 | 0.114 | 0.104 | 0.116 | 0.096 |  |  |  |  |  | 0.196 | 0.167 | 0.192 | 0.102 | 0.0855 | 0.3 | 0.321 | 0.162 | 0.0752 | 0.0692
NCI-H1563 |  |  |  |  |  |  |  |  |  |  | 0.833 | 0.654 | 0.707 | 0.71 | 0.365 | 0.709 | 0.628 | 0.65 | 0.528 | 0.452
EBC-1 |  |  |  |  |  | 0.36 | 0.283 | 0.123 | 0.119 | 0.153 |  |  |  |  |  |  |  |  |  | 
Calu-6 |  |  |  |  |  | 0.693 | 0.513 | 0.136 | 0.0798 | 0.0903 |  |  |  |  |  |  |  |  |  | 
